Measurements from EP4603105A1, “PHARMACEUTICAL COMPOSITION CONTAINING CYCLIC COMPOUND HAVING SELECTIVE KRAS INHIBITORY EFFECT AGAINST HRAS AND NRAS” (CHUGAI SEIYAKU KABUSHIKI KAISHA, priority 2022, dated 2024).
*1 amine or outer side, *2 acyl side, *3 side chain or, on linkers, in order; H or OH if unused. Where a SMILES comes first, the peptide text is derived from it. Bridges are numbered along the chain shown (N, C = ends). [ ]: non-standard residue; d: D form. The star is where a group is joined. hPhe(3-Cl-4-CF3) = N[C@@H](CCc1ccc(C(F)(F)F)c(Cl)c1)C(=O)O; NPrPhe(4-CF3) = CCCN[C@@H](Cc1ccc(C(F)(F)F)cc1)C(=O)O; X32 = Cc1ccc(C[C@@H](C(=O)[*:2])N(CC2CCCC2)[*:1])cc1; Abu(4,4,4-F3) = N[C@@H](CC(F)(F)F)C(=O)O; Morpholine(3S-CO) = O=C(O)[C@@H]1COCCN1; NMeGly(cPent) = CN[C@H](C(=O)O)C1CCCC1; Hyp = O=C(O)[C@@H]1C[C@@H](O)CN1; NMeD = CN[C@@H](CC(=O)O)C(=O)O; NMeL = CN[C@@H](CC(C)C)C(=O)O; Morpholide = C1CN(*)CCO1; dNMeA = CN[C@H](C)C(=O)O; Ac5c = NC1(C(=O)O)CCCC1; Ac4c = NC1(C(=O)O)CCC1; NEtG = CCNCC(=O)O; Sar = CNCC(=O)O

Columns and labels:
HRAS wild-type protein = HRAS wild-type protein (Homo sapiens, UniProt P01112); test: Binding to HRAS by surface plasmon resonance (SPR), KD and KD ratio to KRAS
Outline: (§1)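 Running buffer contained 10 µM GDP and 10 mM MgCl2 to keep RAS in the GDP state, with 4% DMSO at pH 7.4. Compounds were flowed at 100 µL/min in 75 s steps of rising concentration over captured biotin-Avi RAS at 30°C. Sensorgrams were fitted 1:1 for KD.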

[1] = test system: human lung cancer strain NCI-H441; assay type: cell-based
Outline: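 Step one: dispense the test compound in serial DMSO dilutions. Step three: add the reagent and measure […].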

[2] = target: GDP-bound NRAS wild-type protein (Homo sapiens, UniProt P01111); test: Binding to NRAS by surface plasmon resonance (SPR), KD and KD ratio to KRAS
Outline: as §1

[3] = ratio of the KD value with respect to HRAS wild-type protein to the KD value with respect to KRAS
[4] = ratio of the KD value with respect to GDP-bound NRAS wild-type protein to the KD value with respect to KRAS
[5] = ratio of KD for HRAS wild-type protein to KD for KRAS
[6] = ratio of KD for GDP-bound NRAS wild-type protein to KD for KRAS

Sequence of GDP-bound NRAS wild-type protein (P01111 whole entry): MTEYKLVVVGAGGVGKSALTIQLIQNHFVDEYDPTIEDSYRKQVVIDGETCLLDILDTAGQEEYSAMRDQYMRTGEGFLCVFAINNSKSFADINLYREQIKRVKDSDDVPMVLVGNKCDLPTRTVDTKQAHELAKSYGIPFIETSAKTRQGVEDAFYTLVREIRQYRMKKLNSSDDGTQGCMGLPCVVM
Sequence of HRAS wild-type protein (P01112 whole entry): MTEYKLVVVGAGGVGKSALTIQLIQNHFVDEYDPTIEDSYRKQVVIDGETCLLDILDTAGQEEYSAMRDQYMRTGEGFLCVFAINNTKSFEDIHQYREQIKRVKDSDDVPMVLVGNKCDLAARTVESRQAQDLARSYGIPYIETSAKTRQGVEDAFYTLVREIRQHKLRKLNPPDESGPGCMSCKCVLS

Compound | HRAS /KRAS (HRAS wild-type protein; [3]) | IC50 [1] | NRAS /KRAS [2, 4] | HRAS /KRAS (HRAS wild-type protein; [5]) | NRAS /KRAS [2, 6] | HRAS /KRAS (HRAS wild-type protein; ratio of KD value for HRAS wild-type protein to KD value for KRAS (SPR)) | NRAS /KRAS ([2]; ratio of KD value for GDP-bound NRAS wild-type protein to KD value for KRAS (SPR))
CC[C@H](C)[C@@H]1NC(=O)[C@H](CC(C)C)N(C)C(=O)C[C@@H](C(=O)N2CCOCC2)N(C)C(=O)[C@H](C2CCCC2)N(C)C(=O)C2(CCCC2)NC(=O)[C@@H]2CCCN2C(=O)[C@H](CCc2ccc(C(F)(F)F)c(Cl)c2)NC(=O)CN(C)C(=O)[C@H](Cc2ccc(OC)cc2)N2CCCC[C@@H](C2=O)N(C)C(=O)CN(C)C1=O [PP0534] | B (a compound having 3 or more and less than 10 is denoted as B) | 16.7 nM | B (a compound having 3 or more and less than 10 is denoted as B) | – | – | – | –
CCCN1C(=O)CN(C)C(=O)CN(CC)C(=O)[C@H](CC(F)(F)F)NC(=O)[C@H](CC(C)C)N(C)C(=O)C[C@@H](C(=O)N2CCOCC2)N(C)C(=O)[C@H](C2CCCC2)N(C)C(=O)C2(CCCC2)NC(=O)[C@@H]2CCCN2C(=O)[C@H](CCc2ccc(C(F)(F)F)c(Cl)c2)NC(=O)CN(C)C(=O)[C@@H]1Cc1ccc(C(F)(F)F)cc1 [PP0291] ([NMeL][Abu(4,4,4-F3)][NEtG][Sar][NPrPhe(4-CF3)][Sar][hPhe(3-Cl-4-CF3)]P[Ac5c][NMeGly(cPent)][NMeD]-Morpholide; lactam N-11) | – | 31 nM | – | B (a compound having 3 or more and less than 10 is denoted as B) | B (a compound having 3 or more and less than 10 is denoted as B) | – | –
CC[C@H](C)[C@@H]1NC(=O)[C@H](CC(C)C)N(C)C(=O)C[C@@H](C(=O)N2CCOCC2)N(C)C(=O)[C@H](C2CCCC2)N(C)C(=O)C2(COC2)NC(=O)[C@@H]2CCCN2C(=O)[C@H](CCc2cc(F)c(C(F)(F)F)c(F)c2)NC(=O)CN(C)C(=O)[C@H](Cc2ccc(C(F)(F)F)cc2)N2CCCC[C@@H](C2=O)N(C)C(=O)CN(C)C1=O [PP0563] | B (a compound having 3 or more and less than 10 is denoted as B) | 29 nM | B (a compound having 3 or more and less than 10 is denoted as B) | – | – | – | –
CCCN(C)C(=O)[C@@H]1CC(=O)N(C)[C@@H](CC(F)F)C(=O)N[C@@H]([C@@H](C)CC)C(=O)N(C)CC(=O)N(C)[C@H]2C/C=C\CCN(C2=O)[C@@H](Cc2ccc(C(F)(F)F)cc2)C(=O)N(C)CC(=O)N[C@@H](CCc2cc(F)c(C(F)(F)F)c(F)c2)C(=O)N2C[C@H](F)C[C@H]2C(=O)NC2(CC(C)(C)C2)C(=O)N(C)[C@@H](C2CCCC2)C(=O)N1C [PP1687] | – | 2.7 nM | – | – | – | A (a compound having 10 or more and less than 20 is denoted as A) | A (a compound having 10 or more and less than 20 is denoted as A)
CCO[C@@H]1C[C@H]2C(=O)NC3(CCC3)C(=O)N(C)[C@@H](C3CCCC3)C(=O)N(C)[C@H](C(=O)N(C)C)CC(=O)N(C)[C@@H](CCC(F)F)C(=O)N[C@@H]([C@@H](C)CC)C(=O)N(C)CC(=O)N(C)[C@H]3C/C=C\CCN(C3=O)[C@@H](Cc3ccc(C(F)(F)F)cc3)C(=O)N(C)CC(=O)N[C@@H](CCc3cc(F)c(C(F)(F)F)c(F)c3)C(=O)N2C1 [PP1121] | – | 17.3 nM | – | A (a compound having 10 or more and less than 20 is denoted as A) | A (a compound having 10 or more and less than 20 is denoted as A) | – | –
CC[C@H](C)[C@@H]1NC(=O)[C@H](CC(C)C)N(C)C(=O)C[C@@H](C(=O)N2CCOCC2)N(C)C(=O)[C@H](C2CCCC2)N(C)C(=O)C2(CCCC2)NC(=O)[C@@H]2CCCN2C(=O)[C@H](CCc2ccc(C(F)(F)F)c(Cl)c2)NC(=O)CN(C)C(=O)[C@H](Cc2ccc(C)cc2)N(CC2CCCC2)C(=O)CN(C)C(=O)CN(C)C1=O [PP0096] ([NMeL]I[Sar][Sar][X32][Sar][hPhe(3-Cl-4-CF3)]P[Ac5c][NMeGly(cPent)][NMeD]-Morpholide; lactam N-11) | – | 68.9 nM | – | C (A compound having a KD ratio of 0.1 or more and less than 3 is denoted as C) | C (A compound having a KD ratio of 0.1 or more and less than 3 is denoted as C) | – | –
CCO[C@@H]1C[C@H]2C(=O)NC3(CC(C)(C)C3)C(=O)N(C)[C@@H](C3CCCC3)C(=O)N(C)[C@H](C(=O)N(C)C)CC(=O)N(C)[C@@H](CC(C)C)C(=O)N[C@@H]([C@@H](C)CC)C(=O)N(C)CC(=O)N(C)[C@H]3C/C=C\CCN(C3=O)[C@@H](Cc3ccc(C(C)=O)cc3)C(=O)N(C)CC(=O)N[C@@H](CCc3ccc(C(F)(F)F)c(OC)c3)C(=O)N2C1 [PP2694] | – | 12 nM | – | B (a compound having 3 or more and less than 10 is denoted as B) | A (a compound having 10 or more and less than 20 is denoted as A) | – | –
CCO[C@@H]1C[C@H]2C(=O)NC3(CC(C)(C)C3)C(=O)N(C)[C@@H](C(CC)CC)C(=O)N(C)[C@H](C(=O)N(C)C)CC(=O)N(C)[C@@H](CC3CC3)C(=O)N[C@@H]([C@@H](C)CC)C(=O)N(C)CC(=O)N(C)[C@H]3C/C=C\CCN(C3=O)[C@@H](Cc3ccc(C)cc3)C(=O)N(C)CC(=O)N[C@@H](CCc3cc(F)c(C(F)(F)F)c(F)c3)C(=O)N2C1 [PP2137] | A (a compound having 10 or more and less than 20 is denoted as A) | 16.8 nM | A (a compound having 10 or more and less than 20 is denoted as A) | – | – | – | –
CCC[C@H]1C(=O)N[C@@H]([C@@H](C)CC)C(=O)N(C)CC(=O)N(C)[C@H]2C/C=C\CCN(C2=O)[C@@H](Cc2ccc(C(F)(F)F)cc2)C(=O)N(C)CC(=O)N[C@@H](CCc2ccc(Cl)c(OC)c2)C(=O)N2C[C@H](OCC)C[C@H]2C(=O)NC2(CC(C)(C)C2)C(=O)N(C)[C@@H](C(CC)CC)C(=O)N(C)[C@H](C(=O)N(C)C)CC(=O)N1C [PP2789] | – | 47.3 nM | – | A (a compound having 10 or more and less than 20 is denoted as A) | AA (a compound having 20 or more is denoted as AA) | – | –
CCCN1C(=O)CN(C)C(=O)CN(C)C(=O)[C@H]([C@@H](C)CC)NC(=O)[C@H](CC(C)C)N(C)C(=O)C[C@@H](C(=O)N2CCOCC2)N(C)C(=O)[C@H](C2CCCC2)N(C)C(=O)C2(CCCC2)NC(=O)[C@@H]2CCCN2C(=O)[C@H](CCc2ccc(C(F)(F)F)c(Cl)c2)NC(=O)[C@@H](C)N(C)C(=O)[C@@H]1Cc1ccc(C(F)(F)F)cc1 [PP0148] ([NMeL]I[Sar][Sar][NPrPhe(4-CF3)][dNMeA][hPhe(3-Cl-4-CF3)]P[Ac5c][NMeGly(cPent)][NMeD]-Morpholide; lactam N-11) | – | 38 nM | – | B (a compound having 3 or more and less than 10 is denoted as B) | B (a compound having 3 or more and less than 10 is denoted as B) | – | –
CCO[C@@H]1C[C@H]2C(=O)NC3(CCC3)C(=O)N(C)[C@@H](C3CCCC3)C(=O)N(C)[C@H](C(=O)N(C)C)CC(=O)N(C)[C@@H](CC)C(=O)N[C@@H]([C@@H](C)CC)C(=O)N(C)[C@@H](C)C(=O)N(C)[C@H]3C/C=C\CCN(C3=O)[C@@H](Cc3ccc(C(F)(F)F)cc3)C(=O)N(C)CC(=O)N[C@@H](CCc3cc(F)c(C(F)(F)F)c(F)c3)C(=O)N2C1 [PP1054] | – | 469 nM | – | B (a compound having 3 or more and less than 10 is denoted as B) | A (a compound having 10 or more and less than 20 is denoted as A) | – | –
CC[C@H](C)[C@@H]1NC(=O)[C@H](C2CC2)N(C)C(=O)C[C@@H](C(=O)N(C)CC)N(C)C(=O)[C@H](C2CCCC2)N(C)C(=O)C2(CCC2)NC(=O)[C@@H]2C[C@H](C)CN2C(=O)[C@H](CCc2cc(F)c(C(F)(F)F)c(F)c2)NC(=O)CN(C)C(=O)[C@H](Cc2ccc(C(F)(F)F)cc2)N2CC/C=C\C[C@@H](C2=O)N(C)C(=O)CN(C)C1=O [PP2080] | A (a compound having 10 or more and less than 20 is denoted as A) | 17.8 nM | A (a compound having 10 or more and less than 20 is denoted as A) | – | – | – | –
CCCN1C(=O)CN(C)C(=O)CN(CC)C(=O)[C@H]([C@@H](C)CC)NC(=O)[C@H](CC(C)C)N(C)C(=O)C[C@@H](C(=O)N2CCOCC2)N(C)C(=O)[C@H](C2CCCC2)N(C)C(=O)C2(CCCC2)NC(=O)[C@@H]2COCCN2C(=O)[C@H](CCc2ccc(C(F)(F)F)c(Cl)c2)NC(=O)CN(C)C(=O)[C@@H]1Cc1ccc(C(F)(F)F)cc1 [PP0299] ([NMeL]I[NEtG][Sar][NPrPhe(4-CF3)][Sar][hPhe(3-Cl-4-CF3)][Morpholine(3S-CO)][Ac5c][NMeGly(cPent)][NMeD]-Morpholide; lactam N-11) | – | 20.2 nM | – | B (a compound having 3 or more and less than 10 is denoted as B) | B (a compound having 3 or more and less than 10 is denoted as B) | – | –
CCCN1C(=O)CN(C)C(=O)CN(C)C(=O)[C@H]([C@@H](C)CC)NC(=O)[C@H](CC(C)C)N(C)C(=O)C[C@@H](C(=O)N(C)C)N(C)C(=O)[C@H](C2CCCC2)N(C)C(=O)C2(CCC2)NC(=O)[C@@H]2C[C@@H](OCC)CN2C(=O)[C@H](CCc2ccc(C(F)(F)F)c(Cl)c2)NC(=O)CN(C)C(=O)[C@@H]1Cc1ccc(C(F)(F)F)cc1 [PP0416] ([NMeL]I[Sar][Sar][NPrPhe(4-CF3)][Sar][hPhe(3-Cl-4-CF3)][Hyp](Et)[Ac4c][NMeGly(cPent)][NMeD]-NMe2; lactam N-11) | C (A compound having a KD ratio of 0.1 or more and less than 3 is denoted as C) | 1.1 nM | B (a compound having 3 or more and less than 10 is denoted as B) | – | – | – | –
